Source: ChEMBL document CHEMBL1201862, “PubChem BioAssay data set” (2004)
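Dose response: 5 concentrations. Exposure: 48 h. Format: 96-well plates. Endpoint: linear interpolation; highest concentration if not reached. Abbreviation: GI50, concentration required for 50% inhibition of growth.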 Activity calls are given as the source filed them. Cut-off read from the data, not from the text of the source: active = GI50 up to about 1.1 µM and inactive = higher.

Legend:
Assay in all cases: NCI tumour cell line growth inhibition, 48 h
BT-549 = test system: BT-549
EKVX = test system: EKVX
HCC 2998 = test system: HCC 2998
K562 = test system: K562
KM12 = test system: KM12
MDA-MB-435 = test system: MDA-MB-435
MOLT-4 = test system: MOLT-4
NCI-H522 = test system: NCI-H522
OVCAR-4 = test system: OVCAR-4
OVCAR-5 = test system: OVCAR-5
RPMI-8226 = test system: RPMI-8226
SF-539 = test system: SF-539
SK-MEL-2 = test system: SK-MEL-2
SW-620 = test system: SW-620
T47D = test system: T47D
UACC-257 = test system: UACC-257
HT-29 = test system: HT-29
TK-10 = test system: TK-10
HL-60 = test system: HL-60
Hs-578T = test system: Hs-578T

Structure (SMILES) | GI50 (BT-549) | GI50 (EKVX) | GI50 (HCC 2998) | GI50 (K562) | GI50 (KM12) | GI50 (MDA-MB-435) | GI50 (MOLT-4) | GI50 (NCI-H522) | GI50 (OVCAR-4) | GI50 (OVCAR-5) | GI50 (RPMI-8226) | GI50 (SF-539) | GI50 (SK-MEL-2) | GI50 (SW-620) | GI50 (T47D) | GI50 (UACC-257) | GI50 (HT-29) | GI50 (TK-10) | GI50 (HL-60) | GI50 (Hs-578T)
Cc1n[nH]c(=O)n1/N=C/c1c[nH]c2ccccc12 | 38.4 µM (inactive) | 50.7 µM (inactive) | > 100 µM (inactive) | > 100 µM (inactive) | > 100 µM (inactive) | > 100 µM (inactive) | > 100 µM (inactive) | > 100 µM (inactive) | > 100 µM (inactive) | 83.4 µM (inactive) | > 100 µM (inactive) | > 100 µM (inactive) | > 100 µM (inactive) | > 100 µM (inactive) | > 100 µM (inactive) | > 100 µM (inactive) | – | – | – | –
CCCCC(C)(C/C=C/[C@@H]1[C@@H](C(O)CCCCCC(=O)OC)C(=O)C[C@H]1O[Si](C)(C)C(C)(C)C)O[Si](C)(C)C (stereo partly drawn) | > 100 µM (inactive) | > 100 µM (inactive) | > 100 µM (inactive) | 36.5 µM (inactive) | 58.3 µM (inactive) | 74.3 µM (inactive) | 19.7 µM (inactive) | 23.2 µM (inactive) | 86.7 µM (inactive) | > 100 µM (inactive) | 31.2 µM (inactive) | > 100 µM (inactive) | 58.7 µM (inactive) | 59.3 µM (inactive) | – | 62.1 µM (inactive) | 78.5 µM (inactive) | 97.7 µM (inactive) | – | –
COC(=O)Nc1cc(OCCCOC(C)=O)c2[nH]c(C(=O)OC)cc2c1C[C@H](O)CO | 54.7 µM (inactive) | 72.1 µM (inactive) | > 100 µM (inactive) | – | > 100 µM (inactive) | > 100 µM (inactive) | > 100 µM (inactive) | 2.94 µM (inactive) | > 100 µM (inactive) | > 100 µM (inactive) | > 100 µM (inactive) | > 100 µM (inactive) | > 100 µM (inactive) | > 100 µM (inactive) | > 100 µM (inactive) | > 100 µM (inactive) | > 100 µM (inactive) | > 100 µM (inactive) | > 100 µM (inactive) | –
O=C1/C(=C/c2cccc3ccccc23)Cc2ccccc21 | 13.2 µM (inactive) | 26.3 µM (inactive) | 15.5 µM (inactive) | 62.4 µM (inactive) | 35.9 µM (inactive) | – | 40.5 µM (inactive) | – | 22.3 µM (inactive) | 29.2 µM (inactive) | 51.9 µM (inactive) | 27.2 µM (inactive) | – | 31.6 µM (inactive) | – | – | 32.7 µM (inactive) | 49.2 µM (inactive) | 28.4 µM (inactive) | 22 µM (inactive)
COc1ccc2c(c1)CC[C@@H]1[C@@H]2CC[C@]2(C)C(=O)/C(=C/c3ccc(C#N)cc3)C[C@@H]12 | > 100 µM (inactive) | > 100 µM (inactive) | > 100 µM (inactive) | > 100 µM (inactive) | > 100 µM (inactive) | > 100 µM (inactive) | > 100 µM (inactive) | > 100 µM (inactive) | 77.1 µM (inactive) | > 100 µM (inactive) | > 100 µM (inactive) | > 100 µM (inactive) | > 100 µM (inactive) | > 100 µM (inactive) | > 100 µM (inactive) | > 100 µM (inactive) | – | > 100 µM (inactive) | – | –
O=C1/C(=C/c2cccc([N+](=O)[O-])c2)Cc2ccccc21 | > 100 µM (inactive) | > 100 µM (inactive) | – | > 100 µM (inactive) | 86.5 µM (inactive) | > 100 µM (inactive) | > 100 µM (inactive) | 59.3 µM (inactive) | 75 µM (inactive) | > 100 µM (inactive) | > 100 µM (inactive) | > 100 µM (inactive) | > 100 µM (inactive) | 94.8 µM (inactive) | – | > 100 µM (inactive) | > 100 µM (inactive) | > 100 µM (inactive) | > 100 µM (inactive) | > 100 µM (inactive)
CC(C)(C)c1cc([N+](=O)[O-])cc([N+](=O)[O-])c1O [DINOTERB] | – | 9.86 µM (inactive) | > 10 µM (inactive) | 9.29 µM (inactive) | > 10 µM (inactive) | > 10 µM (inactive) | > 10 µM (inactive) | > 10 µM (inactive) | > 10 µM (inactive) | > 10 µM (inactive) | 4.12 µM (inactive) | > 10 µM (inactive) | > 10 µM (inactive) | > 10 µM (inactive) | > 10 µM (inactive) | 8.57 µM (inactive) | > 10 µM (inactive) | > 10 µM (inactive) | > 10 µM (inactive) | 8.71 µM (inactive)
COC(=O)C1(C(=O)OC)CC2=C(S(=O)(=O)c3ccccc3)C[C@@H](C#N)[C@H]2C1 | 71.8 µM (inactive) | > 100 µM (inactive) | 16 µM (inactive) | > 100 µM (inactive) | > 100 µM (inactive) | > 100 µM (inactive) | > 100 µM (inactive) | 43.7 µM (inactive) | > 100 µM (inactive) | > 100 µM (inactive) | – | > 100 µM (inactive) | > 100 µM (inactive) | > 100 µM (inactive) | – | > 100 µM (inactive) | > 100 µM (inactive) | > 100 µM (inactive) | > 100 µM (inactive) | –
Cc1ccc2c(c1)CC1(Cc3ccccc3C1=O)C2=O (stereo not drawn) | – | > 100 µM (inactive) | > 100 µM (inactive) | > 100 µM (inactive) | > 100 µM (inactive) | > 100 µM (inactive) | > 100 µM (inactive) | > 100 µM (inactive) | > 100 µM (inactive) | 55.6 µM (inactive) | > 100 µM (inactive) | > 100 µM (inactive) | – | > 100 µM (inactive) | > 100 µM (inactive) | > 100 µM (inactive) | > 100 µM (inactive) | > 100 µM (inactive) | > 100 µM (inactive) | > 100 µM (inactive)
COC(=O)c1c2cccccc-2c(Cc2c3cccccc-3c(C(=O)OC)c2O)c1O | – | > 100 µM (inactive) | > 100 µM (inactive) | > 100 µM (inactive) | > 100 µM (inactive) | – | > 100 µM (inactive) | > 100 µM (inactive) | > 100 µM (inactive) | > 100 µM (inactive) | > 100 µM (inactive) | > 100 µM (inactive) | > 100 µM (inactive) | > 100 µM (inactive) | – | > 100 µM (inactive) | > 100 µM (inactive) | > 100 µM (inactive) | > 100 µM (inactive) | –
COc1ccc2[nH]c3c4c(cc(-c5ccccc5)c3c2c1)C(=O)N(c1ccccc1)C4=O | – | 38.6 µM (inactive) | > 100 µM (inactive) | 22.1 µM (inactive) | 33.3 µM (inactive) | – | 19.5 µM (inactive) | 8.24 µM (inactive) | 0.411 µM (active) | > 100 µM (inactive) | > 60 µM (inactive) | 2 µM (inactive) | 21.3 µM (inactive) | 11.4 µM (inactive) | – | 35.3 µM (inactive) | 22.7 µM (inactive) | 64.9 µM (inactive) | 38.5 µM (inactive) | –
COc1cccc(NC(=O)CC(=O)N2N=C(n3ccc4ccccc43)CC2c2ccccc2)c1 (stereo not drawn) | – | > 100 µM (inactive) | > 100 µM (inactive) | > 100 µM (inactive) | > 100 µM (inactive) | – | > 100 µM (inactive) | > 100 µM (inactive) | > 100 µM (inactive) | > 100 µM (inactive) | > 100 µM (inactive) | > 100 µM (inactive) | > 100 µM (inactive) | > 100 µM (inactive) | – | > 100 µM (inactive) | > 100 µM (inactive) | > 100 µM (inactive) | > 100 µM (inactive) | –
Nc1ncc(Cc2nn3c(COc4ccc(Cl)cc4)nnc3s2)s1 | – | > 100 µM (inactive) | > 100 µM (inactive) | > 100 µM (inactive) | 7.45 µM (inactive) | > 100 µM (inactive) | > 100 µM (inactive) | > 100 µM (inactive) | > 100 µM (inactive) | > 100 µM (inactive) | > 100 µM (inactive) | > 100 µM (inactive) | > 100 µM (inactive) | > 100 µM (inactive) | > 100 µM (inactive) | > 100 µM (inactive) | > 100 µM (inactive) | 45.2 µM (inactive) | > 100 µM (inactive) | > 100 µM (inactive)
O=[N+]([O-])/C(C(Cl)=C(Cl)Cl)=C1/OCCS1 | – | 32.1 µM (inactive) | 37.9 µM (inactive) | 30 µM (inactive) | 31.9 µM (inactive) | 22.6 µM (inactive) | 17.9 µM (inactive) | 32.4 µM (inactive) | 30.4 µM (inactive) | 32.4 µM (inactive) | 22.9 µM (inactive) | 21.3 µM (inactive) | 27.7 µM (inactive) | – | 37.2 µM (inactive) | 27.7 µM (inactive) | 27.5 µM (inactive) | 25.9 µM (inactive) | 16.9 µM (inactive) | 39.7 µM (inactive)
CCSCCCSCCSCC | > 100 µM (inactive) | > 100 µM (inactive) | > 100 µM (inactive) | > 100 µM (inactive) | > 100 µM (inactive) | > 100 µM (inactive) | 17.2 µM (inactive) | > 100 µM (inactive) | 81.5 µM (inactive) | > 100 µM (inactive) | – | > 100 µM (inactive) | – | > 100 µM (inactive) | > 100 µM (inactive) | > 100 µM (inactive) | > 100 µM (inactive) | > 100 µM (inactive) | 26.4 µM (inactive) | –
OC(C/C=N/Nc1ccccc1)(C(F)(F)Cl)C(F)(F)Cl | – | > 10 µM (inactive) | 4.12 µM (inactive) | 9.46 µM (inactive) | > 10 µM (inactive) | 7.35 µM (inactive) | – | 4.05 µM (inactive) | > 10 µM (inactive) | – | – | > 10 µM (inactive) | > 10 µM (inactive) | > 10 µM (inactive) | 7.53 µM (inactive) | > 10 µM (inactive) | > 10 µM (inactive) | > 10 µM (inactive) | > 10 µM (inactive) | 4.66 µM (inactive)
